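Cells were grown in 96-well plates and exposed to each compound for 48 hours at five concentrations; endpoints were interpolated linearly between bracketing concentrations, or set to the highest concentration if not reached. Definition used: TGI = concentration required for complete inhibition of growth.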
What was measured:
Assay in all cases: NCI-60 cell line screen, 48 h
A498 renal = test system: A498 renal
SF-268 CNS = test system: SF-268 CNS
UO-31 renal = test system: UO-31 renal
T-47D breast = test system: T-47D breast
HCT-116 colon = test system: HCT-116 colon
SK-MEL-28 melanoma = test system: SK-MEL-28 melanoma
MDA-N = test system: MDA-N
HS 578T breast = test system: HS 578T breast
ACHN renal = test system: ACHN renal
SF-539 CNS = test system: SF-539 CNS
OVCAR-5 ovarian = test system: OVCAR-5 ovarian
MDA-MB-231 breast = test system: MDA-MB-231 breast
SK-OV-3 ovarian = test system: SK-OV-3 ovarian
HOP-92 NSCLC = test system: HOP-92 NSCLC
OVCAR-8 ovarian = test system: OVCAR-8 ovarian
A549 NSCLC = test system: A549 NSCLC
MCF7 breast = test system: MCF7 breast
COLO 205 colon = test system: COLO 205 colon
HOP-62 NSCLC = test system: HOP-62 NSCLC
IGROV1 ovarian = test system: IGROV1 ovarian
SW-620 colon = test system: SW-620 colon
786-0 renal = test system: 786-0 renal
HL-60(TB) leukemia = test system: HL-60(TB) leukemia
HT29 colon = test system: HT29 colon
MDA-MB-435 = test system: MDA-MB-435
NCI-H23 lung = test system: NCI-H23 lung
NCI-H226 lung = test system: NCI-H226 lung
SN12C renal = test system: SN12C renal
KM12 colon = test system: KM12 colon
OVCAR-4 ovarian = test system: OVCAR-4 ovarian
PC-3 prostate = test system: PC-3 prostate
NCI/ADR-RES ovarian = test system: NCI/ADR-RES ovarian
UACC-62 melanoma = test system: UACC-62 melanoma
SF-295 CNS = test system: SF-295 CNS
CCRF-CEM leukemia = test system: CCRF-CEM leukemia
UACC-257 melanoma = test system: UACC-257 melanoma
CAKI-1 renal = test system: CAKI-1 renal
RXF 393 renal = test system: RXF 393 renal
TK-10 renal = test system: TK-10 renal
SNB-75 CNS = test system: SNB-75 CNS
SR leukemia = test system: SR leukemia
K-562 leukemia = test system: K-562 leukemia
OVCAR-3 ovarian = test system: OVCAR-3 ovarian
NCI-H460 lung = test system: NCI-H460 lung
MOLT-4 leukemia = test system: MOLT-4 leukemia
RPMI-8226 leukemia = test system: RPMI-8226 leukemia
MALME-3M melanoma = test system: MALME-3M melanoma
M14 melanoma = test system: M14 melanoma
SNB-19 CNS = test system: SNB-19 CNS
LOX IMVI melanoma = test system: LOX IMVI melanoma
SK-MEL-5 melanoma = test system: SK-MEL-5 melanoma
EKVX NSCLC = test system: EKVX NSCLC
DU-145 prostate = test system: DU-145 prostate
HCT-15 colon = test system: HCT-15 colon
NCI-H522 lung = test system: NCI-H522 lung
U251 CNS = test system: U251 CNS
HCC-2998 colon = test system: HCC-2998 colon
SK-MEL-2 melanoma = test system: SK-MEL-2 melanoma

`Cc1nnc2n1-c1ccccc1-c1[nH]c3ccccc3c1C2` was tested, and the TGI (A498 renal) was 78.2 µM, the TGI (SF-268 CNS) was over 100 µM and the TGI (UO-31 renal) was over 100 µM. It also gave a TGI (T-47D breast) of over 100 µM, a TGI (HCT-116 colon) of over 100 µM and a TGI (SK-MEL-28 melanoma) of over 100 µM. It also gave a TGI (MDA-N) of over 100 µM, a TGI (HS 578T breast) of over 100 µM and a TGI (ACHN renal) of over 100 µM. For the same compound, the TGI (SF-539 CNS) was over 100 µM, the TGI (OVCAR-5 ovarian) was over 100 µM and the TGI (MDA-MB-231 breast) was over 100 µM. It also gave a TGI (SK-OV-3 ovarian) of over 100 µM, a TGI (HOP-92 NSCLC) of over 100 µM and a TGI (OVCAR-8 ovarian) of over 100 µM. For the same compound, the TGI (A549 NSCLC) was over 100 µM, the TGI (MCF7 breast) was over 100 µM and the TGI (COLO 205 colon) was over 100 µM. It also gave a TGI (HOP-62 NSCLC) of over 100 µM, a TGI (IGROV1 ovarian) of over 100 µM and a TGI (SW-620 colon) of over 100 µM. The TGI (786-0 renal) was over 100 µM, the TGI (HL-60(TB) leukemia) was 70.8 µM and the TGI (HT29 colon) was over 100 µM. The TGI (MDA-MB-435) was over 100 µM, the TGI (NCI-H23 lung) was over 100 µM and the TGI (NCI-H226 lung) was over 100 µM. For the same compound, the TGI (SN12C renal) was over 100 µM, the TGI (KM12 colon) was over 100 µM and the TGI (OVCAR-4 ovarian) was over 100 µM. For the same compound, the TGI (PC-3 prostate) was over 100 µM, the TGI (NCI/ADR-RES ovarian) was over 100 µM and the TGI (UACC-62 melanoma) was over 100 µM. The TGI (SF-295 CNS) was over 100 µM, the TGI (CCRF-CEM leukemia) was over 100 µM and the TGI (UACC-257 melanoma) was over 100 µM. It also gave a TGI (CAKI-1 renal) of over 100 µM, a TGI (RXF 393 renal) of over 100 µM and a TGI (TK-10 renal) of over 100 µM. The TGI (SNB-75 CNS) was 61.7 µM, the TGI (SR leukemia) was over 100 µM and the TGI (K-562 leukemia) was over 100 µM. It also gave a TGI (OVCAR-3 ovarian) of over 100 µM, a TGI (NCI-H460 lung) of over 100 µM and a TGI (MOLT-4 leukemia) of over 100 µM. It also gave a TGI (RPMI-8226 leukemia) of over 100 µM, a TGI (MALME-3M melanoma) of over 100 µM and a TGI (M14 melanoma) of over 100 µM. It also gave a TGI (SNB-19 CNS) of over 100 µM, a TGI (LOX IMVI melanoma) of over 100 µM and a TGI (SK-MEL-5 melanoma) of over 100 µM. For the same compound, the TGI (EKVX NSCLC) was over 100 µM and the TGI (DU-145 prostate) was over 100 µM.
`CCOC(=O)C(COS(C)(=O)=O)(COS(C)(=O)=O)C(=O)OCC` showed a TGI (A498 renal) of over 100 µM, a TGI (SF-268 CNS) of over 100 µM and a TGI (UO-31 renal) of over 100 µM. It also gave a TGI (T-47D breast) of over 100 µM, a TGI (HCT-116 colon) of over 100 µM and a TGI (SK-MEL-28 melanoma) of over 100 µM. For the same compound, the TGI (MDA-N) was over 100 µM, the TGI (HS 578T breast) was over 100 µM and the TGI (ACHN renal) was over 100 µM. The TGI (HCT-15 colon) was over 100 µM, the TGI (MDA-MB-231 breast) was over 100 µM and the TGI (SK-OV-3 ovarian) was over 100 µM. The TGI (HOP-92 NSCLC) was over 100 µM, the TGI (OVCAR-8 ovarian) was over 100 µM and the TGI (A549 NSCLC) was over 100 µM. The TGI (MCF7 breast) was over 100 µM, the TGI (COLO 205 colon) was over 100 µM and the TGI (SW-620 colon) was over 100 µM. For the same compound, the TGI (HT29 colon) was over 100 µM, the TGI (NCI-H522 lung) was over 100 µM and the TGI (MDA-MB-435) was over 100 µM. For the same compound, the TGI (NCI-H23 lung) was over 100 µM, the TGI (NCI-H226 lung) was over 100 µM and the TGI (SN12C renal) was over 100 µM. The TGI (KM12 colon) was over 100 µM, the TGI (OVCAR-4 ovarian) was over 100 µM and the TGI (PC-3 prostate) was over 100 µM. The TGI (NCI/ADR-RES ovarian) was over 100 µM, the TGI (SF-295 CNS) was over 100 µM and the TGI (CCRF-CEM leukemia) was over 100 µM. For the same compound, the TGI (UACC-257 melanoma) was over 100 µM, the TGI (RXF 393 renal) was over 100 µM and the TGI (TK-10 renal) was over 100 µM. For the same compound, the TGI (SNB-75 CNS) was over 100 µM, the TGI (SR leukemia) was over 100 µM and the TGI (K-562 leukemia) was over 100 µM. For the same compound, the TGI (OVCAR-3 ovarian) was over 100 µM, the TGI (U251 CNS) was over 100 µM and the TGI (HCC-2998 colon) was over 100 µM. For the same compound, the TGI (NCI-H460 lung) was over 100 µM, the TGI (MOLT-4 leukemia) was over 100 µM and the TGI (M14 melanoma) was over 100 µM. For the same compound, the TGI (SNB-19 CNS) was over 100 µM, the TGI (LOX IMVI melanoma) was over 100 µM and the TGI (SK-MEL-5 melanoma) was over 100 µM. It also gave a TGI (DU-145 prostate) of over 100 µM.
In the case of `CC(C)(C)COC1C2(OCCO2)C2CCC1(C)C2(C)C` (centres undefined), the TGI (A498 renal) is reported as over 100 µM, the TGI (SF-268 CNS) is reported as over 100 µM and the TGI (UO-31 renal) is reported as 65.1 µM. It also gave a TGI (T-47D breast) of 68.5 µM, a TGI (SK-MEL-28 melanoma) of over 100 µM and a TGI (MDA-N) of over 100 µM. It also gave a TGI (HS 578T breast) of 90.1 µM, a TGI (ACHN renal) of 42.1 µM and a TGI (SF-539 CNS) of over 100 µM. For the same compound, the TGI (HCT-15 colon) was 50 µM, the TGI (OVCAR-5 ovarian) was 73.8 µM and the TGI (MDA-MB-231 breast) was over 100 µM. The TGI (SK-OV-3 ovarian) was over 100 µM, the TGI (HOP-92 NSCLC) was 70.2 µM and the TGI (OVCAR-8 ovarian) was 55.9 µM. It also gave a TGI (A549 NSCLC) of 48 µM, a TGI (MCF7 breast) of 37.3 µM and a TGI (COLO 205 colon) of 91.1 µM. The TGI (HOP-62 NSCLC) was 59.2 µM, the TGI (IGROV1 ovarian) was over 100 µM and the TGI (SW-620 colon) was 37.9 µM. For the same compound, the TGI (786-0 renal) was 34.5 µM, the TGI (HL-60(TB) leukemia) was 44.2 µM and the TGI (HT29 colon) was 74.4 µM. It also gave a TGI (MDA-MB-435) of over 100 µM, a TGI (NCI-H23 lung) of over 100 µM and a TGI (NCI-H226 lung) of over 100 µM. For the same compound, the TGI (KM12 colon) was 42 µM, the TGI (OVCAR-4 ovarian) was over 100 µM and the TGI (PC-3 prostate) was 54.5 µM. The TGI (NCI/ADR-RES ovarian) was over 100 µM, the TGI (UACC-62 melanoma) was over 100 µM and the TGI (SF-295 CNS) was 35.2 µM. It also gave a TGI (CCRF-CEM leukemia) of 37.8 µM, a TGI (UACC-257 melanoma) of 70.5 µM and a TGI (CAKI-1 renal) of over 100 µM. It also gave a TGI (RXF 393 renal) of 36 µM, a TGI (TK-10 renal) of over 100 µM and a TGI (SNB-75 CNS) of 67.6 µM. The TGI (SR leukemia) was 40.6 µM, the TGI (K-562 leukemia) was 35.7 µM and the TGI (SK-MEL-2 melanoma) was 50.2 µM. It also gave a TGI (OVCAR-3 ovarian) of 33.3 µM, a TGI (U251 CNS) of 34.3 µM and a TGI (HCC-2998 colon) of over 100 µM. For the same compound, the TGI (NCI-H460 lung) was over 100 µM, the TGI (MOLT-4 leukemia) was 39.7 µM and the TGI (RPMI-8226 leukemia) was 41.7 µM. It also gave a TGI (MALME-3M melanoma) of 64 µM, a TGI (M14 melanoma) of over 100 µM and a TGI (SNB-19 CNS) of 41.7 µM. For the same compound, the TGI (LOX IMVI melanoma) was 38 µM, the TGI (SK-MEL-5 melanoma) was over 100 µM and the TGI (EKVX NSCLC) was 79.9 µM. It also gave a TGI (DU-145 prostate) of over 100 µM.
